Legend:
Rattus norvegicus [1] = organism: Rattus norvegicus; experiment: Potency by rat pressor assay; format: functional
Gallus gallus = organism: Gallus gallus; experiment: Potency by avian vasodepressor assay
Rattus norvegicus [2] = organism: Rattus norvegicus; experiment: Potency by rat antidiuretic assay; format: functional, Urine

## CC[C@H](C)[C@@H]1NC(=O)[C@H](Cc2ccc(O)cc2)NC(=O)[C@@H](N)CSSC[C@@H](C(=O)N2CCC[C@H]2C(=O)N[C@@H](CC(C)C)C(=O)NCC(=O)N(C)C)NC(=O)[C@H](CC(N)=O)NC(=O)[C@H](CCC(N)=O)NC1=O
Rattus norvegicus [1]
  Potency: <0.01 mg
Gallus gallus
  Potency: <0.07 mg
Rattus norvegicus [2]
  Potency: 0.096 mg
